The text below walks through data of patent US20040034006A1, “Method of inactivating viral particles in a blood product” (priority 2000, published 2004).

One data set concerns red blood cells. The experiment in a line: in vivo survival of 51Cr-labeled RBC photodynamically treated and re-infused. The conditions noted are these: one value per monkey (BB26, CO33).
For another data set, the system named is P. aeruginosa. Briefly: photodynamic inactivation of bacteria with varying amounts of light. Type of data set: cell-based. The note with it: 25 uM; dependent on amount of light (kJ/m^2); drops from 100%; FIG. 5.
A further data set relates to S. aureus. The data set is described as above. In kind it is cell-based. The note with it: 25 uM; dependent on amount of light (kJ/m^2); drops from 100%; FIG. 5.

“And” between values parts separate entries of the source, which are not always exact repeats. Identical values can stand only once.

Take `C[n+]1ccc(-c2c3nc(c(-c4cc[n+](C)cc4)c4ccc([nH]4)c(-c4cc[n+](C)cc4)c4nc(c(-c5ccccc5)c5ccc2[nH]5)C=C4)C=C3)cc1.[Cl-].[Cl-].[Cl-]` [Sylsens, mono-phenyl-tri-(N-methyl-4-pyridyl)-porphyrin chloride]: the “recovery (%) of red blood cells 24 h after re-infusion” value in the data set with red blood cells (Treated I: re-infused immediately after treatment) was 75% and 102%; in the data set with red blood cells (Treated II: re-infused after 5 weeks of storage after treatment) it was 71% and 72%. In addition, the “inactivation of bacteria, percentage remaining” value in the data set on P. aeruginosa and in the data set with S. aureus was at most 0.001% each time.
